Where two headings read alike, the source gives them in different places.
Columns and labels:
[1] = target: mouse UAE (Mus musculus (Mouse), UniProt Q02053); test: Ubiquitin Activating Enzyme (UAE) HTRF assay, mouse UAE
Protocol: (§1) After incubation for 120 minutes, quantification of the FRET is performed on the Pherostar (BMG).
(§2) For compounds whose values are marked with an asterisk (*), mouse UAE was used. For all other compounds, human UAE was used.

[2] = target: recombinant human UAE (Homo sapiens (Human), UniProt P22314); test: Ubiquitin Activating Enzyme (UAE) HTRF assay, human UAE
Protocol: as §1, §2

[3] = system: leukemia and myeloma cell lines; conditions: cited from earlier work
[4] = system: mouse acute myeloid leukemia (AML model); conditions: cited from earlier work

recombinant human UAE, sequence (P22314 whole entry): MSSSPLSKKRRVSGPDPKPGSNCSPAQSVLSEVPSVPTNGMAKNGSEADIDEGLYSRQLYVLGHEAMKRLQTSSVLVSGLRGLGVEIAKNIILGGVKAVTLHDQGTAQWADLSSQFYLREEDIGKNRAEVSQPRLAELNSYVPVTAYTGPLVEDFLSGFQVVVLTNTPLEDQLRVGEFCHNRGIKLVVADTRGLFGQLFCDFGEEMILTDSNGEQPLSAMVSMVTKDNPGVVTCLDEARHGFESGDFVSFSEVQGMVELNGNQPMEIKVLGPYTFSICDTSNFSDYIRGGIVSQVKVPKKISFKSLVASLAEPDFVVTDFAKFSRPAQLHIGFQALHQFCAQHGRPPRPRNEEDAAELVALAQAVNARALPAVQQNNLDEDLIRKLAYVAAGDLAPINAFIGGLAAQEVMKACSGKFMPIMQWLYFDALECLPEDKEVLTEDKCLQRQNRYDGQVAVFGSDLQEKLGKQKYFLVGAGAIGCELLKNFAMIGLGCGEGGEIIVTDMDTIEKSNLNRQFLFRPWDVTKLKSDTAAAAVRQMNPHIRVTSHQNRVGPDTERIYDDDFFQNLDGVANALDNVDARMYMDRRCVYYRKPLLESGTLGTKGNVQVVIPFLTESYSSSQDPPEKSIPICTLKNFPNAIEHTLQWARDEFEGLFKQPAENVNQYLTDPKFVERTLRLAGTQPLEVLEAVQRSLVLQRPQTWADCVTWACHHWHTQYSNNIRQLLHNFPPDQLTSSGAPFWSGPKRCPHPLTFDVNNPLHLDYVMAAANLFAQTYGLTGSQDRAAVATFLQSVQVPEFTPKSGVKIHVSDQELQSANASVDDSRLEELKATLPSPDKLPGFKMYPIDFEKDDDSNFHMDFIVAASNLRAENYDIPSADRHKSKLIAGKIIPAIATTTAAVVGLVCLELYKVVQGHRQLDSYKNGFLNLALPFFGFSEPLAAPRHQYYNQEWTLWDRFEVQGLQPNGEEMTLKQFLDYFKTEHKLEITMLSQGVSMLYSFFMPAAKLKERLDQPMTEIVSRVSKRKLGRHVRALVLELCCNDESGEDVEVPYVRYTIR
mouse UAE, sequence (Q02053 whole entry): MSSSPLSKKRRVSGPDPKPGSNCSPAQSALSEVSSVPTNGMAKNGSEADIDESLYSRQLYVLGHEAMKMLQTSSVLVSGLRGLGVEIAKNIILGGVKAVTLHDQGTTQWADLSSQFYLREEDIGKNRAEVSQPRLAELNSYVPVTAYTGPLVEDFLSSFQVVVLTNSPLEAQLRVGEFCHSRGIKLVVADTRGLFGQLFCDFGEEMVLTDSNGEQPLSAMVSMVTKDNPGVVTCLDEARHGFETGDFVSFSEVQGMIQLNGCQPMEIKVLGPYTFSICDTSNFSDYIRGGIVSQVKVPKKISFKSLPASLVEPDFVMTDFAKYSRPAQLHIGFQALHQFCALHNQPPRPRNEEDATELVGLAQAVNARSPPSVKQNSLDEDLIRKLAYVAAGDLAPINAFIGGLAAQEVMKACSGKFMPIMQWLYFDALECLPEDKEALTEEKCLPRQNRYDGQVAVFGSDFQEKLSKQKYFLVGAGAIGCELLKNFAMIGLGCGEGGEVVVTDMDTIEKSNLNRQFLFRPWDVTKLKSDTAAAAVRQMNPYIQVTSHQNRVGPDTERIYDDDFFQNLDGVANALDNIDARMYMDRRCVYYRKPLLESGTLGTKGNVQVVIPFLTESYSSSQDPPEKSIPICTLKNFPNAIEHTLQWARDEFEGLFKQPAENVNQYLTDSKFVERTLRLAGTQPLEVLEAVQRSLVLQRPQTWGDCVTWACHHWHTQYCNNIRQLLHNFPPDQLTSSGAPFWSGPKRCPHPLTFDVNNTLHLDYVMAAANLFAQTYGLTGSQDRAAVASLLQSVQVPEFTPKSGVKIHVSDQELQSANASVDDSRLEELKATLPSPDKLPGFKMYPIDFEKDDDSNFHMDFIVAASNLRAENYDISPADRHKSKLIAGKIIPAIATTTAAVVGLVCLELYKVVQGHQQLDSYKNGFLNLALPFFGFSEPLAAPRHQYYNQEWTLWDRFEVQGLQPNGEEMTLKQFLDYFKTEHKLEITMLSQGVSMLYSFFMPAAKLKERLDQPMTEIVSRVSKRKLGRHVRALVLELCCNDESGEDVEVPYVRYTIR

IC50 [1] | IC50 ([2]; human UAE) | Compound | also measured
10 to 100 nM | – | NS(=O)(=O)OC[C@H]1C[C@@H](Nc2ccnc3cc(-c4ccccc4)nn23)[C@H](O)[C@@H]1O (racemic) [Compound I-001, (rac)-((1R,2R,3S,4R)-2,3-dihydroxy-4-(2-phenylpyrazolo[1,5-a]pyrimidin-7-ylamino)cyclopentyl)methyl rel-sulfamate] | –
< 10 nM | – | NS(=O)(=O)OC[C@H]1C[C@@H](Nc2ccnc3cc(-c4cccc5ccccc45)nn23)[C@H](O)[C@@H]1O (racemic) [Compound I-002, (rac)-((1R,2R,3S,4R)-2,3-dihydroxy-4-{[2-(1-naphthyl)pyrazolo[1,5-a]-pyrimidin-7-yl]amino}cyclopentyl)methyl rel-sulfamate] | –
< 10 nM | – | NS(=O)(=O)OC[C@H]1C[C@@H](Nc2ccnc3cc(-c4cccc(Cl)c4)nn23)[C@H](O)[C@@H]1O (racemic) [Compound I-005, (rac)-((1R,2R,3S,4R)-4-((2-(3-Chlorophenyl)pyrazolo[1,5-a]pyrimidin-7-yl)amino)-2,3-dihydroxycyclopentyl)methyl rel-sulfamate] | –
100 to 1000 nM | – | NS(=O)(=O)OC[C@H]1C[C@@H](Nc2cc(Cl)nc3cc(-c4ccccn4)nn23)[C@H](O)[C@@H]1O (racemic) [Compound I-011, (rac)-((1R,2R,3S,4R)-4-(5-chloro-2-(pyridin-2-yl)pyrazolo[1,5-a]pyrimidin-7-ylamino)-2,3-dihydroxycyclopentyl)methyl rel-sulfamate] | –
10 to 100 nM | – | NS(=O)(=O)OC[C@H]1C[C@@H](Nc2ccnc3cc(-c4ccccn4)nn23)[C@H](O)[C@@H]1O (racemic) [Compound I-012, (rac)-[(1R,2R,3S,4R)-2,3-dihydroxy-4-{[2-(pyridin-2-yl)pyrazolo[1,5-a]pyrimidin-7-yl]amino}cyclopentyl]methyl rel-sulfamate] | –
< 10 nM | – | NS(=O)(=O)OC[C@H]1C[C@@H](Nc2ccnc3cc(-c4csc5cc(Cl)ccc45)nn23)[C@H](O)[C@@H]1O (racemic) [Compound I-091, (rac)-((1R,2R,3S,4R)-4-(2-(6-chlorobenzo[b]thiophen-3-yl)pyrazolo[1,5-a]pyrimidin-7-ylamino)-2,3-dihydroxycyclopentyl)methyl rel-sulfamate] | –
– | < 10 nM | NS(=O)(=O)OC[C@H]1C[C@@H](Nc2ccnc3cc(-c4cccc5c4oc4ccccc45)nn23)[C@H](O)[C@@H]1O [Compound I-103, (s.e.)-((1R,2R,3S,4R)-4-(2-(dibenzo[b,d]furan-4-yl)pyrazolo[1,5-a]pyrimidin-7-ylamino)-2,3-dihydroxycyclopentyl)methyl sulfamate] | –
– | < 10 nM | COc1ccc2ccccc2c1-c1cc2nccc(N[C@@H]3C[C@H](COS(N)(=O)=O)[C@@H](O)[C@H]3O)n2n1 [Compound I-104, (s.e.)-((1R,2R,3S,4R)-2,3-dihydroxy-4-(2-(2-methoxynaphthalen-1-yl)pyrazolo[1,5-a]pyrimidin-7-ylamino)cyclopentyl)methyl sulfamate] | –
– | < 10 nM | COc1ccc(-c2cc3nccc(N[C@@H]4C[C@H](COS(N)(=O)=O)[C@@H](O)[C@H]4O)n3n2)c2ccccc12 [Compound I-106, (s.e.)-((1R,2R,3S,4R)-2,3-dihydroxy-4-(2-(4-methoxynaphthalen-1-yl)pyrazolo[1,5-a]pyrimidin-7-ylamino)cyclopentyl)methyl sulfamate] | –
– | < 10 nM | CN(C)c1ccc(-c2cc3nccc(N[C@@H]4C[C@H](COS(N)(=O)=O)[C@@H](O)[C@H]4O)n3n2)c2ccccc12 [Compound I-107, (s.e.)-((1R,2R,3S,4R)-4-(2-(4-(dimethylamino)naphthalen-1-yl)pyrazolo[1,5-a]pyrimidin-7-ylamino)-2,3-dihydroxycyclopentyl)methyl sulfamate] | –
– | < 10 nM | CC(C)Oc1ccc2ccccc2c1-c1cc2nccc(N[C@@H]3C[C@H](COS(N)(=O)=O)[C@@H](O)[C@H]3O)n2n1 [Compound I-109, (s.e.)-((1R,2R,3S,4R)-2,3-dihydroxy-4-(2-(2-isopropoxynaphthalen-1-yl)pyrazolo[1,5-a]pyrimidin-7-ylamino)cyclopentyl)methyl sulfamate] | –
– | < 10 nM | NS(=O)(=O)OC[C@H]1C[C@@H](Nc2ccnc3cc(-c4c(OC(F)F)ccc5ccccc45)nn23)[C@H](O)[C@@H]1O [Compound I-110, (s.e.)-((1R,2R,3S,4R)-4-(2-(2-(difluoromethoxy)naphthalen-1-yl)pyrazolo[1,5-a]pyrimidin-7-ylamino)-2,3-dihydroxycyclopentyl)methyl sulfamate] | –
– | < 10 nM | NS(=O)(=O)OC[C@H]1C[C@@H](Nc2ccnc3cc(-c4cccc5cc(C(F)F)ccc45)nn23)[C@H](O)[C@@H]1O [Compound I-111, (s.e.)-((1R,2R,3S,4R)-4-(2-(6-(difluoromethyl)naphthalen-1-yl)pyrazolo[1,5-a]pyrimidin-7-ylamino)-2,3-dihydroxycyclopentyl)methyl sulfamate] | –
– | < 10 nM | NS(=O)(=O)OC[C@H]1C[C@@H](Nc2ccnc3cc(-c4ccc(OC(F)F)c5ccccc45)nn23)[C@H](O)[C@@H]1O [Compound I-112, (s.e.)-((1R,2R,3S,4R)-4-(2-(4-(difluoromethoxy)naphthalen-1-yl)pyrazolo[1,5-a]pyrimidin-7-ylamino)-2,3-dihydroxycyclopentyl)methyl sulfamate] | –
– | – | NS(=O)(=O)OC[C@H]1C[C@@H](Nc2ccnc3cc(-c4c(Cl)cc(Cl)c5ccccc45)nn23)[C@H](O)[C@@H]1O [Compound I-117, (s.e.)-((1R,2R,3S,4R)-4-(2-(2,4-dichloronaphthalen-1-yl)pyrazolo[1,5-a]pyrimidin-7-ylamino)-2,3-dihydroxycyclopentyl)methyl sulfamate] | IC50 [2]: 10 to 100 nM
– | < 10 nM | COc1ccc(SC(F)(F)F)cc1-c1cc2nccc(N[C@@H]3C[C@H](COS(N)(=O)=O)[C@@H](O)[C@H]3O)n2n1 [Compound I-120, (s.e.)-((1R,2R,3S,4R)-2,3-dihydroxy-4-(2-(2-methoxy-5-(trifluoromethylthio)-phenyl)pyrazolo[1,5-a]pyrimidin-7-ylamino)cyclopentyl)methyl sulfamate] | –
– | – | NS(=O)(=O)OC[C@H]1C[C@@H](Nc2c(Cl)cnc3c(Cl)c(-c4cccc(SC(F)(F)F)c4)nn23)[C@H](O)[C@@H]1O [Compound I-124, (s.e.)-{(1R,2R,3S,4R)-4-[(3,6-dichloro-2-{3-[(trifluoromethyl)sulfanyl]phenyl}pyrazolo[1,5-a]pyrimidin-7-yl)amino]-2,3-dihydroxycyclopentyl}methyl sulfamate] | IC50 [2]: 100 to 1000 nM
– | – | NS(=O)(=O)OC[C@H]1C[C@@H](Nc2c(Cl)cnc3cc(-c4cccc(SC(F)(F)F)c4)nn23)[C@H](O)[C@@H]1O [Compound I-125, (s.e.)-{(1R,2R,3S,4R)-4-[(6-chloro-2-{3-[(trifluoromethyl)sulfanyl]phenyl}pyrazolo[1,5-a]pyrimidin-7-yl)amino]-2,3-dihydroxycyclopentyl}methyl sulfamate] | IC50 [2]: 100 to 1000 nM
– | – | O=C1NN(c2ccc(F)c(Cl)c2)C(=O)/C1=C\c1ccc([N+](=O)[O-])o1 [PYZD-4409] | cell death [3]: induced cell death; anti-tumor activity [4]: demonstrated anti-tumor activity

Reference: patent US9663525B2, “Pyrazolopyrimidinyl inhibitors of ubiquitin-activating enzyme” (Millennium Pharmaceuticals, Inc., priority 2012, dated 2017)
